Assay results published in patent US4159263A, “(D-Ala^5)-somatostatin and analogues thereof” (American Home Products Corporation, priority 1977, dated 1979).
Positions of bridges follow the written chain, without caps; N, C: chain ends. Non-standard residues stand in square brackets, D forms with d. Residues, ends and D or L forms follow the SMILES beside them.

Legend:
[1] = test system: insulin; assay: Arginine-stimulated insulin secretion in Nembutal-anesthetized rats, radioimmunoassay of blood; assay type: in vivo; conditions: for Insulin: albino male rats, subcutaneous
Text: (§1) The results of the assay are as follows:

[2] = test system: growth hormone; assay: Arginine-stimulated growth hormone secretion in Nembutal-anesthetized rats, radioimmunoassay of blood; assay type: in vivo; conditions: for GH: albino male rats, subcutaneous
Text: as §1

[3] = test system: glucagon; assay: Arginine-stimulated glucagon secretion in Nembutal-anesthetized rats, radioimmunoassay of blood; conditions: for Glucagon: albino male rats, subcutaneous
Experimental: Albino male rats were administered Nembutal intraperitoneally at a dose of 50 milligrams per kilogram. Fifteen minutes later a subcutaneous injection of the test compound or physiological saline was administered. Ten minutes later 0.5 milliliters of arginine (300 milligrams per milliliter, pH 7.2) is injected into the heart. Five minutes after receipt of the arginine the rats are decapitated and blood is collected into trasylol-EDTA. An appropriate aliquot was assayed for growth hormone, insulin and glucagon by radioimmunoassay.

C[C@H](N)C(=O)NCC(=O)N[C@H]1CSSC[C@@H](C(=O)O)NC(=O)[C@H](CO)NC(=O)[C@H]([C@@H](C)O)NC(=O)[C@H](Cc2ccccc2)NC(=O)[C@H]([C@@H](C)O)NC(=O)[C@H](CCCCN)NC(=O)[C@@H](Cc2c[nH]c3ccccc23)NC(=O)[C@H](Cc2ccccc2)NC(=O)[C@H](Cc2ccccc2)NC(=O)[C@@H](C)NC(=O)[C@H](CCCCN)NC1=O [L-Alanylglycyl-L-cysteinyl-L-lysyl-D-alanyl-L-phenylalanyl-L-phenylalanyl-D-tryptophyl-L-lysyl-L-threonyl-L-phenylalanyl-L-threonyl-L-seryl-L-cysteinecyclic (3→14)-disulfide, triacetate] (H-AGCK[dA]FF[dW]KTFTSC-OH; disulfide 3-14)
Insulin ([1]; dose 10 ug/kg, control 321 ± 49): 215 ± 13 μU/ml | Insulin ([1]; dose 100 ug/kg, control 339 ± 45): 68 ± 11 μU/ml | Insulin ([1]; dose 1,000 ug/kg, control 191 ± 11): 42 ± 5 μU/ml | reducing secretion of insulin (summary in words) ([1]; summary of rat results): effective agent for reducing secretion of growth hormone and insulin | GH ([2]; dose 10 ug/kg, control 254 ± 40): 53 ± 6 ng/mL | GH ([2]; dose 100 ug/kg, control 526 ± 153): 117 ± 31 ng/mL | GH ([2]; dose 1,000 ug/kg, control 312 ± 63): 34 ± 5 ng/mL | reducing secretion of growth hormone (summary in words) ([2]; summary of rat results): effective agent for reducing secretion of growth hormone | Glucagon ([3]; dose 10 ug/kg, control 92 ± 23, *not significant): 78 ± 7 pg/mL | Glucagon ([3]; dose 1,000 ug/kg, control 42 ± 3): 40 ± 6 pg/mL | effect on glucagon levels (summary in words) ([3]; summary of rat results): without materially affecting glucagon levels
